Common to all, as to format: biochemical
One assay has as its target T1, MMP-1 (Homo sapiens, UniProt P03956).
T1 construct: purchased R&D Systems 901-MP
T1 sequence (P03956 100-469): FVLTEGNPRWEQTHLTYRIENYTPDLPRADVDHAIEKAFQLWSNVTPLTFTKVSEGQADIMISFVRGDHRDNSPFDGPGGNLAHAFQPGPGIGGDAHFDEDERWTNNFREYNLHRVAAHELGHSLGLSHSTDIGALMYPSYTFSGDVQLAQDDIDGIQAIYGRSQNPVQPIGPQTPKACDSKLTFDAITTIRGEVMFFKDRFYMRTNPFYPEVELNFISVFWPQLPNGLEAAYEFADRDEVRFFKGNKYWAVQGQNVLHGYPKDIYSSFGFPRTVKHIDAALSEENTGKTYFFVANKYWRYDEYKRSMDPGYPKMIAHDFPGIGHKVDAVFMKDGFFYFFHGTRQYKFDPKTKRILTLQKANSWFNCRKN
Put plainly: In vitro MMP-1 inhibition test. The note with it: human MMP-1. The text has this: (§1) The MMP-mediated amidolytic cleavage of a suitable peptide substrate leads to an increase in fluorescent light here too. The signal intensity of the fluorescent light is directly proportional to the enzyme activity. The active concentration of a test compound at which half the enzyme is inhibited (50% signal intensity of the fluorescent light) is reported as the IC50 value.
(§2) Recombinant MMP-1 (R&D Systems, 901-MP) is chemically activated in accordance with the manufacturer's instructions using APMA. 1 μl of the test compound to be analysed (as a solution in DMSO, suitable concentrations e.g. 1 nM to 30 μM) is pipetted into 24 μl of activated enzyme (final concentration e.g. 2 nM) in reaction buffer (50 mM Tris/HCl pH 7.5, 10 mM CaCl2, 150 mM NaCl, 0.05% Brij®-35) in a white 384-hole microtiter plate (MTP). The enzymatic reaction is started by adding the intramolecularly quenched Mca-Pro-Leu-Gly-Leu-Dpa(Dnp)-Ala-Arg-NH2 substrate (final concentration e.g. 10 μM; R&D Systems, ES-001), so as to result in a total test volume of 50 μl. The course of the MMP-1 reaction is measured by measuring the fluorescence intensity (excitation 320 nm, emission 410 nm) over a suitable period of time (e.g. over 120 min at a temperature of 32° C.).

Assay [1] has as its target T2, human macrophage elastase (HME/hMMP-12) (Homo sapiens, UniProt P39900).
T2 construct: purchased R&D Systems 917-MP
Nature of the assay: In vitro HME inhibition test (standard or high-sensitivity). The note with it: in some cases mean values, rounded to two significant figures. Put shortly: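 Autoactivated HME (0.5 nM; high-sensitivity format 0.05 nM, ~16 h) with 5 μM quenched Mca-PLGLEEA-Dap(Dnp)-NH2 substrate in HEPES pH 7.4, NaCl, CaCl2, ZnCl2, EDTA, Brij buffer, 2 h at 37° C. Fluorescence at ex 323/em 393 nm; IC50 from signal versus concentration.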

The target in a further assay is T3, MMP-9 (Homo sapiens, UniProt P14780).
T3 construct: purchased R&D Systems 911-MP
T3 sequence (P14780 107-707 limits assumed): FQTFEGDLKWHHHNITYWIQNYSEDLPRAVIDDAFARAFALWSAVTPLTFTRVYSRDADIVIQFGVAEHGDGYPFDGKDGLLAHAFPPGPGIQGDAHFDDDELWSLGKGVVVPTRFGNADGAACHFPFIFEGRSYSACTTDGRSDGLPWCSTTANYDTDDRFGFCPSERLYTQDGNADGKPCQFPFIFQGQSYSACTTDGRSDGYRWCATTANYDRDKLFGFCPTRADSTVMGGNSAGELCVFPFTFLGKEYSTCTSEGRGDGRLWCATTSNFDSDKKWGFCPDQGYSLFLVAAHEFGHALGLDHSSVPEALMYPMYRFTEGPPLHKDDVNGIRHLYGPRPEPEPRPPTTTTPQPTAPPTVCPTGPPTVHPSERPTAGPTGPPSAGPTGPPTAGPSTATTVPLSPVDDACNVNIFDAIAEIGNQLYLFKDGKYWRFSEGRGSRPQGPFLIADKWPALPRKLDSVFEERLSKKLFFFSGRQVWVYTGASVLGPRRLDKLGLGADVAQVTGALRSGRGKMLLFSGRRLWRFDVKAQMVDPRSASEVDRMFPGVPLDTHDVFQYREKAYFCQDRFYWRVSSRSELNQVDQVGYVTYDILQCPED
Nature of the assay: In vitro MMP-9 inhibition test. The note with it: human MMP-9.
Source text: as §1
as §2, with “Recombinant MMP-9” for “Recombinant MMP-1”, “Systems, 911-MP)” for “Systems, 901-MP)”, “e.g. 0.1” for “e.g. 2”, “the MMP-9” for “the MMP-1”

T2 sequence (P39900 106-470): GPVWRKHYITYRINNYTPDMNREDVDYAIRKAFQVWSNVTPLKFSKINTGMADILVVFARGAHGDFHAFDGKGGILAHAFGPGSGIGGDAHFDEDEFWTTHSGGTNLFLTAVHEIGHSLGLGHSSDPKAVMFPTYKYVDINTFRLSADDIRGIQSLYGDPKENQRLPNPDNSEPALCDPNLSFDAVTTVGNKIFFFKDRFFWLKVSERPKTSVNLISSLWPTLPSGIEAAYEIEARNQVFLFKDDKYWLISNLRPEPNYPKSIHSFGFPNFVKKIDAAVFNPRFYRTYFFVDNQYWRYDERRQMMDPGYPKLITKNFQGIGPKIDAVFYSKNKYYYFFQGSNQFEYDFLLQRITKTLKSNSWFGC

On to `O=C(CC(CCn1nnc2ccccc2c1=O)C(=O)O)c1cc2cc(OCc3ccccc3)ccc2o1` (single isomer, unassigned; (+)) [Example 30, (+)-4-[5-(Benzyloxy)-1-benzofur-2-yl]-4-oxo-2-[2-(4-oxo-1,2,3-benzotriazin-3(4H)-yl)ethyl]butanoic acid], for which the figures for the IC50 (against MMP-1; in assay [1]; on MMP-9) were > 40000 nM, 0.99 nM and 27000 nM, respectively.

As to `O=C(CC(CCn1nnc2ccccc2c1=O)C(=O)O)c1cc2cc(OCCc3ccccc3Cl)ccc2o1` (racemic) [Example 1, (+/−)-4-{5-[2-(2-Chlorophenyl)ethoxy]-1-benzofur-2-yl}-4-oxo-2-[2-(4-oxo-1,2,3-benzotriazin-3(4H)-yl)ethyl]butanoic acid], the IC50 was > 40000 nM on MMP-1, 2.6 nM in assay [1] and > 40000 nM at MMP-9.

`Cc1cccc(COc2ccc3oc(C(=O)CC(CCn4nnc5ccccc5c4=O)C(=O)O)cc3c2)c1` (racemic) [Example 51, (+/−)-4-{5-[(3-Methylbenzyl)oxy]-1-benzofur-2-yl}-4-oxo-2-[2-(4-oxo-1,2,3-benzotriazin-3(4H)-yl)ethyl]butanoic acid]: the IC50 on MMP-1 was > 40000 nM; in assay [1], 4.1 nM; against MMP-9 it was 30000 nM.

With `NC(=O)c1cccc(COc2ccc3oc(C(=O)CC(CCn4nnc5ccccc5c4=O)C(=O)O)cc3c2)c1` (single isomer, unassigned; (+)) [Example 34, (+)-4-{5-[(3-Carbamoylbenzyl)oxy]-1-benzofur-2-yl}-4-oxo-2-[2-(4-oxo-1,2,3-benzotriazin-3(4H)-yl)ethyl]butanoic acid], the IC50 was > 40000 nM against MMP-1, 1.1 nM in assay [1] and 38000 nM at MMP-9.

With `O=C(CC(CCn1nnc2ccccc2c1=O)C(=O)O)c1cc2cc(OCCCc3ccccc3)ccc2o1` (racemic) [Example 37, (+/−)-4-Oxo-2-[2-(4-oxo-1,2,3-benzotriazin-3(4H)-yl)ethyl]-4-[5-(3-phenylpropoxy)-1-benzofur-2-yl]butanoic acid], the IC50 against MMP-1 was > 40000 nM; in assay [1] it was 4.6 nM; at MMP-9, 17000 nM.

For `CCCCCCOc1ccc2c(C(=O)CC(CCn3nnc4ccccc4c3=O)C(=O)O)coc2c1` (single isomer, unassigned; (+)) [Example 100, (+)-4-[6-(Hexyloxy)-1-benzofur-3-yl]-4-oxo-2-[2-(4-oxo-1,2,3-benzotriazin-3(4H)-yl)ethyl]butanoic acid], the IC50 on MMP-1 is > 40000 nM; in assay [1] it was 0.18 nM; on MMP-9, 74 nM.

For the compound `O=C(CC(CCn1nnc2ccccc2c1=O)C(=O)O)c1cc2cc(OCCC3CCCC3)ccc2o1` (racemic) [Example 7, (+/−)-4-[5-(2-Cyclopentylethoxy)-1-benzofur-2-yl]-4-oxo-2-[2-(4-oxo-1,2,3-benzotriazin-3(4H)-yl)ethyl]butanoic acid], the IC50 is > 40000 nM at MMP-1, 2.8 nM in assay [1] and 5000 nM against MMP-9.

With `O=C(CC(CCn1nnc2ccccc2c1=O)C(=O)O)c1cc2cc(OCCCC(F)(F)F)ccc2o1` (single isomer, unassigned; enantiomer 2) [Example 13, (+)-4-Oxo-2-[2-(4-oxo-1,2,3-benzotriazin-3(4H)-yl)ethyl]-4-[5-(4,4,4-trifluorobutoxy)-1-benzofur-2-yl]butanoic acid (enantiomer 2)], the IC50 against MMP-1 is > 40000 nM; in assay [1] it was 6.1 nM; at MMP-9, 3800 nM.

Regarding `CCCOc1ccc2cc(C(=O)CC(CCn3nnc4ccccc4c3=O)C(=O)O)oc2c1` (racemic) [Example 58, (+/−)-4-Oxo-2-[2-(4-oxo-1,2,3-benzotriazin-3(4H)-yl)ethyl]-4-(6-propoxy-1-benzofur-2-yl)butanoic acid], the IC50 at MMP-1 was > 40000 nM; in assay [1] it was 5 nM; against MMP-9, 10000 nM.

Regarding `O=C(CC(CCn1nnc2ccccc2c1=O)C(=O)O)c1cc2cc(OCC3CCCCC3)ccc2o1` (racemic) [Example 8, (+/−)-4-[5-(Cyclohexylmethoxy)-1-benzofur-2-yl]-4-oxo-2-[2-(4-oxo-1,2,3-benzotriazin-3(4H)-yl)ethyl]butanoic acid], the IC50 is > 40000 nM at MMP-1, 2 nM in assay [1] and 13000 nM against MMP-9.

With `CCCCCCCOc1ccc2cc(C(=O)CC(CCn3nnc4ccccc4c3=O)C(=O)O)oc2c1` (single isomer, unassigned; (+)) [Example 69, (+)-4-[6-(Heptyloxy)-1-benzofur-2-yl]-4-oxo-2-[2-(4-oxo-1,2,3-benzotriazin-3(4H)-yl)ethyl]butanoic acid acid], the IC50 is > 40000 nM at MMP-1, 1 nM in assay [1] and 13000 nM on MMP-9.

As for `O=C(CC(CCn1nnc2ccccc2c1=O)C(=O)O)c1cc2ccc(OCCc3ccccc3)cc2s1` (racemic) [Example 114, (+/−)-4-Oxo-2-[2-(4-oxo-1,2,3-benzotriazin-3(4H)-yl)ethyl]-4-[6-(2-phenylethoxy)-1-benzothiophen-2-yl]butanoic acid], the values for the IC50 (against MMP-1; in assay [1]; on MMP-9) were > 40000 nM, 0.3 nM and 240 nM, respectively.

Regarding `O=C(O)[C@H]1[C@H](Cn2nnc3ccc(C(F)(F)F)cc3c2=O)CC[C@@H]1C(=O)c1cc2cc(OCCc3ccccc3)ccc2o1` (racemic) [Example 157, (+/−)-(1RS,2SR,5RS)-2-{[4-Oxo-6-(trifluoromethyl)-1,2,3-benzotriazin-3(4H)-yl]methyl}-5-{[5-(2-phenylethoxy)-1-benzofur-2-yl]carbonyl}cyclopentanecarboxylic acid (racemate)], the IC50 against MMP-1 was > 40000 nM; in assay [1], 0.055 nM; against MMP-9 it was 190 nM.

For `O=C(CC(CCn1nnc2ccccc2c1=O)C(=O)O)c1noc2cc(OCC3CC3)ccc12` (racemic) [Example 150, (+/−)-4-[6-(Cyclopropylmethoxy)-1,2-benzoxazol-3-yl]-4-oxo-2-[2-(4-oxo-1,2,3-benzotriazin-3(4H)-yl)ethyl]butanoic acid], the values for the IC50 (on MMP-1; in assay [1]; on MMP-9) were > 40000 nM, 3.8 nM and 650 nM, respectively.

For `CCCCCCCOc1ccc2oc(C(=O)CC(CCn3nnc4ccccc4c3=O)C(=O)O)cc2c1` (racemic) [Example 31, (+/−)-4-[5-(Heptyloxy)-1-benzofur-2-yl]-4-oxo-2-[2-(4-oxo-1,2,3-benzotriazin-3(4H)-yl)ethyl]butanoic acid], the IC50 against MMP-1 was > 40000 nM; in assay [1], 4.8 nM; at MMP-9 it was 9700 nM.

With `O=C(CC(CCn1nnc2ccccc2c1=O)C(=O)O)c1cc2cc(OCCC3CCOCC3)ccc2o1` (racemic) [Example 6, (+/−)-4-Oxo-2-[2-(4-oxo-1,2,3-benzotriazin-3(4H)-yl)ethyl]-4-{5-[2-(tetrahydro-2H-pyran-4-yl)ethoxy]-1-benzofur-2-yl}butanoic acid], the IC50 against MMP-1 was > 40000 nM; in assay [1], 4 nM; against MMP-9 it was 3400 nM.

Regarding `O=C(CC(CCn1nnc2ccccc2c1=O)C(=O)O)c1cc2cc(OCc3ccc(C(F)(F)F)cc3)ccc2o1` (racemic) [Example 44, (+/−)-4-Oxo-2-[2-(4-oxo-1,2,3-benzotriazin-3(4H)-yl)ethyl]-4-(5-{[4-(trifluoromethyl)benzyl]oxy}-1-benzofur-2-yl)butanoic acid], the IC50 was > 40000 nM against MMP-1, 0.62 nM in assay [1] and 9900 nM on MMP-9.

These data come from patent publication US20170121315A1, “HETEROBICYCLICALLY SUBSTITUTED 4-OXOBUTANE ACID DERIVATIVES AND USE THEREOF” (priority 2014, published 2017).
